pIC50: −log10 of the molar value.
Tests used:
[1] = target: recombinant mouse 11β-HSD1 (Mus musculus, UniProt P50172); assay: Enzyme activity assay on mouse 11β-HSD1 (HTRF); type: biochemical; conditions: recombinant mouse 11β-HSD1, 2μM 11-dehydrocorticosterone as substrate, 2 hours at 37° C.; read-out: mouseIC50
Description: Evaluation of 11β-HSD1 Inhibitors (Enzyme Activity Assay on Mouse 11β-HSD1)
Enzymatic activity for mouse 11β-HSD1 activity was determined in a 10μl final volume of assay mixture containing 50 mM sodium phosphate buffer (pH 7.6), 1 mg/ml bovine serum albumin, 0.42 mg/ml NADPH, 1.26 mg/ml glucose-6-phosphate, glucose-6-phosphate dehydrogenase, test compound, recombinant mouse 11β-HSD1, and 2μM 11-dehydrocorticosterone as substrate. The reaction was started with the addition of 11-dehydrocorticosterone. After incubation for 2 hours at 37° C., 5μl of europium cryptate-labelled anti-cortisol antibody and 5μl of XL665-labeled cortisol were added. After further incubation for 2 hours at room temperature, the HTRF signal was measured. The corticosterone production was quantitated by a standard curve generated with several known concentrations of corticosterone in each assay.
(§1) The amount of corticosterone production without compounds was served as control, and the percent inhibition by compound at each concentration was calculated. The IC50 value of the compound for 11β-HSD1 was obtained using the inhibition curve generated by plotting the percent inhibition versus the concentration of test compound.

[2] = target: recombinant human 11β-HSD1 (Homo sapiens, UniProt P28845); assay: Enzyme activity assay on human 11β-HSD1 (HTRF); type: biochemical; conditions: recombinant human 11β-HSD1, 5μM cortisone as substrate, 2 hours at 37° C.; read-out: humanIC50
Description: Evaluation of 11β-HSD1 Inhibitors (Enzyme Activity Assay on Human 11β-HSD1)
Enzymatic activity for human 11β-HSD1 was determined in a 10 μl final volume of assay mixture containing 50 mM sodium phosphate buffer (pH 7.6), 1 mg/ml bovine serum albumin, 0.42 mg/ml NADPH, 1.26 mg/ml glucose-6-phosphate, glucose-6-phosphate dehydrogenase, test compound, recombinant human 11β-HSD1, and 5μM cortisone as substrate. The reaction was started with the addition of cortisone. After incubation for 2 hours at 37° C., 5μl of europium cryptate-labelled anti-cortisol antibody and 5μl of XL665-labeled cortisol were added. After further incubation for 2 hours at room temperature, the homogeneous time-resolved fluorescence (HTRF) signal was measured. The cortisol production was quantitated by a standard curve generated with several known concentrations of cortisol in each assay.
as §1, with “amount of cortisol production without” for “amount of corticosterone production without”, “inhibition by test compound at” for “inhibition by compound at”

Chain of recombinant human 11β-HSD1 (P28845 whole entry): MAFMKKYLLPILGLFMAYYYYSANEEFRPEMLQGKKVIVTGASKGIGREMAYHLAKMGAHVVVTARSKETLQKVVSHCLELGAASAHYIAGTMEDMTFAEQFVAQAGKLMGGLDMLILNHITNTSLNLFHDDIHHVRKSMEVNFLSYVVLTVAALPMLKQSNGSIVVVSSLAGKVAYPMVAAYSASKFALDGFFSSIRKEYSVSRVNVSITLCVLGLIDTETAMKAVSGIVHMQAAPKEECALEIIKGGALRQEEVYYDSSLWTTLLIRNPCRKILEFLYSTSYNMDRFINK
Chain of recombinant mouse 11β-HSD1 (P50172 whole entry): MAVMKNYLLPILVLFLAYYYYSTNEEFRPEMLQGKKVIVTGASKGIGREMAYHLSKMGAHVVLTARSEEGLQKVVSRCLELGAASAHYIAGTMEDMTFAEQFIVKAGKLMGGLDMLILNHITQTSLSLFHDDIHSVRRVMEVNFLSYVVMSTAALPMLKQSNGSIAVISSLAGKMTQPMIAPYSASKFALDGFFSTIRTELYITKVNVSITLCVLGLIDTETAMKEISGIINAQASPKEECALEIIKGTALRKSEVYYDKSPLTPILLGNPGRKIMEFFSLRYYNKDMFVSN

| SMILES | pIC50 [1] | pIC50 [2] | melting point [°C] |
| --- | --- | --- | --- |
| Cn1ncc(C(=O)NC23CC4CC(CC(C4)C2)C3)c1Oc1ccccc1 [Compound A-3] | 4.62 | 6.52 | – |
| Cn1ncc(C(=O)NC23CC4CC(CC(C4)C2)C3)c1Sc1ccccc1 [Compound A-2] | 4.96 | 6.57 | – |
| Cn1ncc(C(=O)NC23CC4CC(CC(C4)C2)C3)c1OCc1ccccc1 [Compound A-1] | 5.23 | 6.72 | – |
| Cn1ncc(C(=O)NC2C3CC4CC(C3)CC2C4)c1OCCc1ccsc1 (centres unmarked) [Compound A-64] | – | – | 68 to 69 |
| Cn1cc(C(=O)NC2C3CC4CC(C3)CC2C4)c(OCc2ccccc2)n1 (centres unmarked) [Compound A-5] | < 4.52 | 6.15 | – |
| CCC(CC)COc1c(C(=O)NC2C3CC4CC(C3)CC2C4)cnn1C (centres unmarked) [Compound A-65] | – | – | 89 to 90 |
| Cn1ncc(C(=O)NC2C3CC4CC(C3)CC2C4)c1OCC1CCC1 (centres unmarked) [Compound A-63] | – | – | 84 to 85 |
| Cn1ncc(C(=O)NC2C3CC4CC(C3)CC2C4)c1OC1CCCCC1 (centres unmarked) [Compound A-6] | 6.03 | 8.08 | – |
| Cn1ncc(C(=O)NC2C3CC4CC(C3)CC2C4)c1OCc1ccccc1 (centres unmarked) [Compound A-4] | 5.80 | 7.43 | – |
| Cn1ncc(C(=O)NC2C3CC4CC(C3)CC2C4)c1OCCc1ccccc1 (centres unmarked) [Compound A-7] | 6.15 | 7.74 | – |
